Assay results published in the NIST ThermoML archive (doi:10.1016/j.jct.2012.12.010).

Experiment: mn = molality of the nth substance listed, in mol/kg
Settings: 101 kPa, Liquid; for speed of sound: Linear variable-path acoustic interferometer; for mass density: Pycnometric method

C[C@@H](O)[C@H](N)C(=O)O [L-threonine] + O
Settings | mass density [kg/m3] | speed of sound [m/s]
275.15 K, m1 = 0.0337 | 1001.56 | 1415.3
275.15 K, m1 = 0.0672 | 1003.12 | 1418.7
275.15 K, m1 = 0.1009 | 1004.6 | 1422
275.15 K, m1 = 0.1338 | 1006.09 | 1425.3
275.15 K, m1 = 0.1674 | 1007.23 | 1428.6
275.15 K, m1 = 0.2002 | 1008.62 | 1431.8
275.15 K, m1 = 0.2334 | 1010.1 | 1435.1
275.15 K, m1 = 0.2689 | 1011.67 | 1438.6
275.15 K, m1 = 0.3009 | 1012.89 | 1441.8
275.15 K, m1 = 0.3345 | 1014.39 | 1445.1
275.15 K, m1 = 0.3679 | 1015.8 | 1448.4
275.15 K, m1 = 0.4054 | 1017.24 | 1452.2
279.15 K, m1 = 0.0337 | 1001.55 | 1433.1
279.15 K, m1 = 0.0671 | 1002.96 | 1436.2
279.15 K, m1 = 0.101 | 1004.52 | 1439.3
279.15 K, m1 = 0.1342 | 1005.69 | 1442.3
279.15 K, m1 = 0.1665 | 1006.97 | 1445.3
279.15 K, m1 = 0.2002 | 1008.49 | 1448.4
279.15 K, m1 = 0.235 | 1009.98 | 1451.6
279.15 K, m1 = 0.2673 | 1011.46 | 1454.5
279.15 K, m1 = 0.2996 | 1012.62 | 1457.5
279.15 K, m1 = 0.3683 | 1015.5 | 1463.8
279.15 K, m1 = 0.4005 | 1016.91 | 1466.8
283.15 K, m1 = 0.0224 | 1000.69 | 1449
283.15 K, m1 = 0.0677 | 1002.52 | 1453.1
283.15 K, m1 = 0.101 | 1004.25 | 1456.1
283.15 K, m1 = 0.1362 | 1005.58 | 1459.2
283.15 K, m1 = 0.1665 | 1006.81 | 1461.9
283.15 K, m1 = 0.2005 | 1008.32 | 1465
283.15 K, m1 = 0.2345 | 1009.56 | 1468.1
283.15 K, m1 = 0.2725 | 1011.21 | 1471.5
283.15 K, m1 = 0.2996 | 1012.33 | 1473.9
283.15 K, m1 = 0.3351 | 1013.76 | 1477.1
283.15 K, m1 = 0.3677 | 1015.01 | 1480
283.15 K, m1 = 0.3928 | 1016.16 | 1482.3

CC(C)[C@H](N)C(=O)O [L-valine] + O
Settings | mass density [kg/m3] | speed of sound [m/s]
275.15 K, m1 = 0.034 | 1000.99 | 1416.5
275.15 K, m1 = 0.0672 | 1001.86 | 1420.9
275.15 K, m1 = 0.1028 | 1002.93 | 1425.7
275.15 K, m1 = 0.1349 | 1003.79 | 1429.9
275.15 K, m1 = 0.1675 | 1004.61 | 1434.3
275.15 K, m1 = 0.2021 | 1005.54 | 1438.9
275.15 K, m1 = 0.233 | 1006.4 | 1443
275.15 K, m1 = 0.2667 | 1007.34 | 1447.5
275.15 K, m1 = 0.3009 | 1008.25 | 1452
275.15 K, m1 = 0.3669 | 1009.99 | 1460.8
275.15 K, m1 = 0.4066 | 1011.08 | 1466.1
279.15 K, m1 = 0.0341 | 1000.9 | 1434.1
279.15 K, m1 = 0.0671 | 1001.87 | 1438.1
279.15 K, m1 = 0.1009 | 1002.75 | 1442.1
279.15 K, m1 = 0.1418 | 1003.8 | 1447
279.15 K, m1 = 0.1696 | 1004.51 | 1450.4
279.15 K, m1 = 0.2021 | 1005.51 | 1454.3
279.15 K, m1 = 0.2382 | 1006.36 | 1458.6
279.15 K, m1 = 0.2782 | 1007.44 | 1463.4
279.15 K, m1 = 0.2983 | 1007.95 | 1465.8
279.15 K, m1 = 0.3342 | 1008.96 | 1470.2
279.15 K, m1 = 0.3652 | 1009.77 | 1473.9
279.15 K, m1 = 0.3951 | 1010.57 | 1477.5
283.15 K, m1 = 0.0341 | 1000.61 | 1450.7
283.15 K, m1 = 0.0669 | 1001.41 | 1454.2
283.15 K, m1 = 0.1015 | 1002.33 | 1458
283.15 K, m1 = 0.1349 | 1003.08 | 1461.6
283.15 K, m1 = 0.1666 | 1004.17 | 1465
283.15 K, m1 = 0.2025 | 1005.15 | 1468.9
283.15 K, m1 = 0.2321 | 1006.04 | 1472.1
283.15 K, m1 = 0.2787 | 1007.06 | 1477.1
283.15 K, m1 = 0.297 | 1007.53 | 1479.1
283.15 K, m1 = 0.3314 | 1008.49 | 1482.8
283.15 K, m1 = 0.3663 | 1009.41 | 1486.6
283.15 K, m1 = 0.3972 | 1010.11 | 1489.9

N=C(N)NCCC[C@H](N)C(=O)O [L-arginine] + O
Settings | mass density [kg/m3] | speed of sound [m/s]
275.15 K, m1 = 0.0381 | 1002.25 | 1416.9
275.15 K, m1 = 0.0808 | 1004.4 | 1422.5
275.15 K, m1 = 0.1223 | 1006.6 | 1427.9
275.15 K, m1 = 0.1659 | 1008.86 | 1433.5
275.15 K, m1 = 0.2092 | 1010.74 | 1439.2
275.15 K, m1 = 0.2503 | 1012.81 | 1444.5
275.15 K, m1 = 0.2909 | 1014.82 | 1449.8
275.15 K, m1 = 0.3371 | 1017.05 | 1455.8
275.15 K, m1 = 0.3742 | 1018.75 | 1460.6
275.15 K, m1 = 0.4153 | 1020.74 | 1465.9
275.15 K, m1 = 0.4529 | 1022.49 | 1470.8
275.15 K, m1 = 0.5067 | 1024.97 | 1477.8
279.15 K, m1 = 0.0381 | 1002.12 | 1434.5
279.15 K, m1 = 0.0808 | 1004.33 | 1439.6
279.15 K, m1 = 0.1225 | 1005.88 | 1444.5
279.15 K, m1 = 0.1847 | 1009.11 | 1451.9
279.15 K, m1 = 0.2092 | 1010.49 | 1454.8
279.15 K, m1 = 0.25 | 1012.51 | 1459.7
279.15 K, m1 = 0.2932 | 1014.5 | 1464.8
279.15 K, m1 = 0.3459 | 1017.1 | 1471.1
279.15 K, m1 = 0.3742 | 1018.39 | 1474.4
279.15 K, m1 = 0.4177 | 1020.39 | 1479.6
279.15 K, m1 = 0.4601 | 1022.35 | 1484.6
279.15 K, m1 = 0.5176 | 1025.01 | 1491.4
283.15 K, m1 = 0.0379 | 1001.53 | 1451.4
283.15 K, m1 = 0.0806 | 1003.83 | 1456.3
283.15 K, m1 = 0.1228 | 1005.96 | 1461.2
283.15 K, m1 = 0.1755 | 1008.59 | 1467.2
283.15 K, m1 = 0.2052 | 1009.81 | 1470.7
283.15 K, m1 = 0.2496 | 1012.14 | 1475.8
283.15 K, m1 = 0.291 | 1014.12 | 1480.5
283.15 K, m1 = 0.3386 | 1016.31 | 1486
283.15 K, m1 = 0.3757 | 1017.99 | 1490.3
283.15 K, m1 = 0.416 | 1019.92 | 1495
283.15 K, m1 = 0.4566 | 1021.75 | 1499.6
283.15 K, m1 = 0.5031 | 1023.84 | 1505
